ChEMBL document CHEMBL3085678, “3-Azatetracyclo[5.2.1.1(5,8).0(1,5)]undecane derivatives: from wild-type inhibitors of the M2 ion channel of influenza A virus to derivatives with potent activity against the V27A mutant” (J Med Chem, 2013)
Activity calls are given as the source filed them. The rule behind the calls is not given here.

Assays:
[1] = Cytotoxicity against MDCK cells assessed as minimum cytotoxic concentration after 72 hrs by MTS assay; assay type: cell-based, Canis lupus familiaris; conditions: dog
[2] = system: Influenza A virus (A/udorn/1972(H3N2)); assay type: cell membranes; conditions: 100 uM
Human alphaherpesvirus 1 = test: Antiviral activity against Herpes simplex virus type 1; assay type: functional, organism-based
MDCK = test: Cytotoxicity against MDCK cells after 72 hrs by MTS assay; assay type: cell-based, Canis lupus familiaris; conditions: dog
Feline coronavirus = test: Antiviral activity against Feline coronavirus; assay type: functional, organism-based
Coxsackievirus B4 = test: Antiviral activity against Coxsackievirus B4; assay type: functional, organism-based
[3] = system: Respiratory syncytial virus; test: Antiviral activity against Respiratory syncytial virus; assay type: functional, organism-based
Sindbis virus = test: Antiviral activity against Sindbis virus; assay type: functional, organism-based
Human alphaherpesvirus 2 = test: Antiviral activity against Herpes simplex virus type 2; assay type: functional, organism-based
Punta Toro virus = test: Antiviral activity against Punta Toro virus; assay type: functional, organism-based
[4] = system: Vesicular stomatitis virus; test: Antiviral activity against Vesicular stomatitis virus; assay type: functional, organism-based
[5] = Cytotoxicity against MDCK cells assessed as minimum cytotoxic concentration after 24 hrs by MTS assay; assay type: cell-based, Canis lupus familiaris; conditions: dog
Human respirovirus 3 = test: Antiviral activity against Parainfluenza-3 virus; assay type: functional, organism-based
[6] = system: Mammalian orthoreovirus 1; test: Antiviral activity against Reovirus-1; assay type: functional, organism-based
Vaccinia virus = test: Antiviral activity against Vaccinia virus; assay type: functional, organism-based; conditions: Orthopoxvirus vaccinia
[7] = Inhibition of Influenza A virus M2 ion channel by two-electrode voltage clamp assay

Structure (SMILES)	MCC at 72 h [1]	inhibition [2]	Activity (Human alphaherpesvirus 1)	CC50 (MDCK)	Activity (Feline coronavirus)	Activity (Coxsackievirus B4)	Activity [3]	Activity (Sindbis virus)	Activity (Human alphaherpesvirus 2)	Activity (Punta Toro virus)	Activity [4]	MCC at 24 h [5]	Activity (Human respirovirus 3)	Activity [6]	Activity (Vaccinia virus)	IC50 [7]
C1CCC23CC45CNCC4(CC2(C1)C5)C3	4 µM	85.3%	inactive	6.8 µM	inactive	inactive	inactive	inactive	inactive	inactive	inactive	> 50 µM	inactive	inactive	inactive	
NC1CC[Si]2(CCCCC2)CC1																14 µM
NC(=O)c1ncn([C@@H]2O[C@H](CO)[C@@H](O)[C@H]2O)n1 [RIBAVIRIN]												> 100 µM				
Oc1ccc(CNC23CC4CC(CC(C4)C2)C3)c(O)c1																59 µM
CC(N)C12CC3CC(CC(C3)C1)C2 (configuration not stated) [RIMANTADINE]	500 µM			203 µM								≥ 500 µM				
NC12C3CCC4C3C3C(CCC31)C42		4.8%	inactive		inactive	inactive	inactive	inactive	inactive	inactive	inactive		inactive	inactive	inactive	
CCC12CC34CN(C(=N)N)CC3(C1)CC2(CC)C4	4 µM	42.8%	inactive	6.2 µM	inactive	inactive	inactive	inactive	inactive	inactive	inactive		inactive	inactive	inactive	
C1C2C1C1C3C4C5C6CC6C4C14CNCC54C23 (configuration not stated)		86.5%	inactive		inactive	inactive	inactive	inactive	inactive	inactive	inactive		inactive	inactive	inactive	
CN1CC23CC4CC2(CC4C3)C1	≥ 100 µM	88.3%	inactive	> 100 µM	inactive	inactive	inactive	inactive	inactive	inactive	inactive		inactive	inactive	inactive	
N=C(N)N1CC23CC45CCCCC4(C2)CC3(C1)C5	4 µM	93.1%	inactive	3.1 µM	inactive	inactive	inactive	inactive	inactive	inactive	inactive	≥ 10 µM	inactive	inactive	inactive	
C1=CC2C3C4C5C=CC4C24CNCC54C13			inactive		inactive	inactive	inactive	inactive	inactive	inactive	inactive		inactive	inactive	inactive	
N=C(N)N1CC23CC4CC2(CC4C3)C1	8.5 µM	95.7%	inactive	10 µM	inactive	inactive	inactive	inactive	inactive	inactive	inactive	> 50 µM	inactive	inactive	inactive	
c1csc(-c2cc(CNC34CC5CC(CC(C5)C3)C4)no2)c1																> 100 µM
C1NCC23CC4CC12CC4C3	100 µM	93.9%	inactive	≥ 59 µM	inactive	inactive	inactive	inactive	inactive	inactive	inactive		inactive	inactive	inactive	
CC12CC3CC1(C)CC3(CN)C2		97.3%	inactive		inactive	inactive	inactive	inactive	inactive	inactive	inactive		inactive	inactive	inactive	
CN1CC23CC4(C)CC2(C1)CC4(C)C3	≥ 20 µM	87.9%	inactive	49 µM	inactive	inactive	inactive	inactive	inactive	inactive	inactive		inactive	inactive	inactive	
CC12CC3CC1(C)CC3(N)C2		93.6%	inactive		inactive	inactive	inactive	inactive	inactive	inactive	inactive		inactive	inactive	inactive	
CC12CC34CNCC3(C1)CC2(C)C4	100 µM	93.8%	inactive	59 µM	inactive	inactive	inactive	inactive	inactive	inactive	inactive		inactive	inactive	inactive	
CCC12CC34CNCC3(C1)CC2(CC)C4	20 µM	65%	inactive	49 µM	inactive	inactive	inactive	inactive	inactive	inactive	inactive		inactive	inactive	inactive	
NCC12C3CCC4C3C3C(CCC31)C42		12.8%	inactive		inactive	inactive	inactive	inactive	inactive	inactive	inactive		inactive	inactive	inactive	
NC12CC3CC(CC(C3)C1)C2 [AMANTADINE]	> 500 µM	91%		> 500 µM								≥ 500 µM				
CC12CC34CN(C(=N)N)CC3(C1)CC2(C)C4	4 µM	92.4%	inactive	1.4 µM	inactive	inactive	inactive	inactive	inactive	inactive	inactive	> 50 µM	inactive	inactive	inactive	
NC1CCC2(CC1)C1CC3CC(C1)CC2C3 (configuration not stated)																19 µM
